In brackets after ≈: the same amount, converted by molar mass.
Key:
whole blood = assay: Whole blood luminol dependent chemiluminescence; type: cell-based; settings: 0.5 h; fresh human blood, 30 minutes, 37° C.; read-out: Whole blood chemiluminescence (IC 50 mg/ml)
Description: Anti-inflammatory activity has been assessed by measuring luminol dependent chemiluminescence generated by free radicals released from whole blood and from white blood cells. The assay has been performed using the following protocol: 10 μl of fresh human blood is mixed with 0.980 ml of Hanks saline solution containing 5×10^−5 M luminol and the test sample (at various concentrations). The chemiluminescent response is recorded continuously for 30 minutes at a temperature of 37° C. The results are expressed as IC50 (mg/ml), i.e. as the minimum sample, concentration inhibiting chemiluminescence by 50% with respect to the control. To isolate white blood cells (WBC) from whole blood one proceeds in the following manner: 1 ml of fresh blood is layered onto a Hipaque gradient (p=1.119) and centrifuged at 250×g for 60 minutes at room temperature. Following centrifugation, the pellet containing the white blood cells is washed twice, using a large volume of cold Hanks saline solution. Finally, the washed WBCs are resuspended in 01 ml di HBSS containing foetal calf serum. 10^6 WBC are added to a chemiluminometer cuvette. 10 μl of PMA (final concentration equal to 10 nM) are added to induce the formation of free radicals. The chemiluminescent response is recorded continuously for 30 minutes at a temperature of 37° C. […]

platelets = assay: ADP induced platelet aggregation in platelet rich plasma; type: cell-based, rabbit; settings: 1.0 mg/ml
Description: Platelet enriched rabbit plasma has been used to assess the platelet anti-aggregating and disaggregating properties of Syringa vulgaris Extract 1, verbascoside and isoverbascoside. Platelet rich plasma has been obtained from rabbit venous blood by mixing it with a 3.8% sodium citrate solution (9:1 v/v). The solution has then been centrifuged at 460×g for 20 minutes. The supernatant has been collected and immediately used for the aggregation assays. Platelet aggregation has been recorded using a Chronolog “Ionised calcium platelet aggregometer” (Chrono-log Co., USA). All measurements have been performed at 37° C. with continuous stirring. […] Then 10 μl of a solution of ADP (final concentration—10 μm) has been added and the luminous transmittance continuously recorded. The results are expressed as the DÒ/DÒÊ ratio, where DÒÊ and DÒ are the luminous transmittance values, in the absence and presence of extract respectively. Platelet disaggregation (the disappearance of pre formed aggregates) has been determined using the same luminous transmittance curve 10 minutes following the addition of ADP. The results are expressed as the DR/DRk ratio, where DRk and DR, are the luminous transmittance in the absence and presence of extract. […]

[1] = Metal chelating activity (spectrophotometric), Ni2+; type: binding; settings: chelation equilibrium constant, calculated for a pure phenylpropanoid
Excerpt: The chelating activities of Syringa vulgaris extracts, verbascoside and isoverbascoside in relation to Fe^2+, Fe^3+, Cu^2+ and Ni^2+ metal ions has been determined by means of spectrophotometric measurements using a Shimadzu 1770 UV spectrophotometer. The activities of chelating agents depends on the association constant (equilibrium) of their reactions with the metals according to the following reaction:
[formula] wherein Keq is the equilibrium constant equal to the ratio of concentrations at equilibrium of a complex and product of equilibrium concentrations of metal ions and a chelator:
[formula] The method used for determining chelating activity is well documented in the literature (Korkina L G, Afarras'er IB. Antioxidant and chelating properties of flavonoids. Adv. Pharmacol., 1997, 38:151-63). The results are expressed as Keg (M^−1) calculated for a pure phenylpropanoid. This way the chelating activity against ferrous (Fe II), ferric (Fe III), copper (Cu II) and nickel ions has been calculated.

tyrosinase [2] = assay: Tyrosinase inhibition, oxidation of L-tyrosine to L-DOPA; type: biochemical; settings: 250 μg/ml
Excerpt: (§1) The enzyme tyrosinase catalyses the reactions leading to melanin biosynthesis from tyrosine. […] Substances inhibiting tyrosinase activity produce clearing/bleaching effect on the skin, since they block melanin synthesis. The method used to determine the inhibition of tyrosinase activity in the oxidation reaction of L-tyrosine to L-DOPA is that described in Kim et al. […] Biol. Pharm. Bull. 28(2), 323-327, 2005). The method applied for determination of the inhibition of tyrosinase activity in the conversion of L-DOPA to DOPAquinone is that described in Masamoto et al. (Mushroom tyrosinase inhibitory activity of esculetin isolated from seeds of Euphorbia lathyris L. Biosci. Biotechnol. Biochem., 67(3), 631-634, 2003).

tyrosinase [3] = assay: Tyrosinase inhibition, conversion of L-DOPA to DOPAquinone; type: biochemical, Mushroom; settings: 100 μg/ml
Excerpt: as §1

[4] = test system: Trycophyton rubrum ATCC 28188; assay: Multiple dilution antimycotic assay, Trycophyton rubrum; type: cell-based; settings: assayed at 0.625-5 mg/ml
Description: With the aim of identifying any potential antifungal activity in the Syringa vulgaris extracts, microbiological assays have been prepared, generally known as multiple dilution assays. Such assays have been performed using the following fungal strains: Trycophyton rubrum ATCC 28188 and Malassezia furfur ST 8036. Syringa vulgaris Extracts 1 and 2, verbascoside and isoverbascoside have been assayed at concentrations of […], 1.25 mg/ml, 2.5 mg/ml and 5 mg/ml. The fungal strains used for testing have been inoculated into culture-broth (in Tryptone soy broth medium, for Malassezia furfur the culture medium has been supplemented with 2 ml/100 ml of olive oil) containing Syringa vulgaris extracts 1 and 2, verbascoside and isoverbascoside at the concentrations described above. In parallel with these tests, culture broths containing the microbial strain alone have been prepared (controls). The culture-broths have, been incubated at 30° C. for a period of 28 days. Samples of the various culture-broths have been taken at 0, 7, 14, 21 and 28 days, with the aim of counting the number of CFU/ml in relation to the various fungal strains, by plating the cultures on solid medium. A certain number of serial dilutions have been prepared for each sample in order to determine the fungal load of each culture-broth. Each dilution has been assayed in triplicate on solid medium. […]

| IC50 (whole blood) | Test L-tyrosine-DOPA inhibitory activity (%) (tyrosinase [2]) | Test LDOPA-DOPAquinone inhibitory activity (%) (tyrosinase [3]) | SMILES | Aggregation (% with respect to control) (platelets) | Ni^2+ (Keq, M^−1) [1] | antimycotic activity towards Trycophyton rubrum (in words) [4] |
| --- | --- | --- | --- | --- | --- | --- |
| 1.3 mg/mL (≈ 2080 µM) | 10.9% | 10% | CC1OC(OC2C(O)C(COC(=O)C=Cc3ccc(O)c(O)c3)OC(OCCc3ccc(O)c(O)c3)C2O)C(O)C(O)C1O [Isoverbascoside, b-(3,4-dihydroxyphenyl)-ethyl-O-α-L-ramnopyranosyl(1″-3′)-b-D-(6′-O-caffeoil)glucopyranoside] | 25 ± 6 % | 1398 ± 362 M⁻¹ | activity comparable to Extract 1 |
| 1.29 mg/mL (≈ 2070 µM) | 19.6% | 20.6% | C[C@@H]1O[C@@H](O[C@@H]2[C@@H](O)[C@H](OCCc3ccc(O)c(O)c3)O[C@H](CO)[C@H]2OC(=O)/C=C/c2ccc(O)c(O)c2)[C@H](O)[C@H](O)[C@H]1O [Verbascoside, b-(3,4-dihydroxyphenyl)-ethyl-O-α-L-ramnopyranosyl (1″-3′)-b-D-(4′-O-caffeoil)-glucopyranoside] | 24 ± 6 % | 1427 ± 319 M⁻¹ | activity comparable to Extract 1 |

Source: patent US10456434B2, “Extracts obtained from cell line cultures from plants belonging to the Oleaceae family (e.g. Syringa vulgaris), their preparation and use” (CRODA ITALIANA S. P. A., priority 2005, dated 2019)
